According to patent publication US10221163B2 (priority 2015, dated 2019):
Where two headings read alike, the source gives them in different places.

Columns and labels:
[1] = target: IMP-1 (Serratia marcescens, UniProt P52699); assay: biochemical; type: biochemical; settings: fluorescence assay, CCF2-FA substrate, 2 pM enzyme, 2 hours at 25° C.; read-out: IMP-1 IC50
Outline: (§1)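 Semi-log dose-response curves, fitted with a 4-parameter model, gave IC50s. The underlying signal was CCF2-FA fluorescence following 2 hours at 25° C with enzyme, substrate and inhibitor combined.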

[2] = target: NDM-1 (Klebsiella pneumoniae, UniProt C7C422); assay: biochemical; type: biochemical; settings: fluorescence assay, CCF2-FA substrate, 1 pM enzyme, 2 hours at 25° C.; read-out: NDM-1 IC50
Outline: as §1

[3] = target: VIM-1 (Pseudomonas aeruginosa (strain ATCC 15692 / DSM 22644 / CIP 104116 / JCM 14847 / LMG 12228 / 1C / PRS 101 / PAO1), UniProt A0A0F7KYQ8); assay: biochemical; settings: CCF2-FA substrate, 30 pM enzyme, 2 hours at 25° C.
Outline: as §1

[4] = tested on: Escherichia coli expressing NDM-1 (CLB30005, CLB30016); type: cell-based; settings: NDM-1 strain, with imipenem 1 μg/ml, 95% inhibition of growth
Outline: (§2)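 Colonies grown overnight on blood agar at 35° C were suspended in saline, diluted 1:100 into 1.1×CAMHB and dispensed. Imipenem was added to 1 μg/ml, then test compound. After 22 hours to 24 hours at 35° C, absorbance was recorded.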

[5] = tested on: Klebsiella pneumoniae expressing VIM-1 (IHMA599644); type: cell-based; settings: VIM-1 strain IHMA599644, with imipenem 1 μg/ml, 95% inhibition of growth
Outline: as §2

[6] = tested on: Serratia marcescens expressing IMP-1 (CL5741); type: cell-based; settings: IMP-1 strain CL5741, with imipenem 1 μg/ml, 95% inhibition of growth
Outline: as §2

[7] = tested on: Pseudomonas aeruginosa efflux+ (MB9798), IMP-1; type: cell-based; design: Concentration of metallo-β-lactamase inhibitor which restores susceptibility of efflux + (MB9798) strain to imipenem: unit not given here; settings: efflux+ MB9798; imipenem at 2 μg/mL; in the presence of a class A, C, D serine β-lactamase inhibitor closely related to relebactam
Outline: (§3)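 P. aeruginosa PAO1-derived IMP-1 strains, efflux+ MB9798 and efflux− MB9799, tested by standard microbroth MIC with imipenem and/or ceftazidime fixed, usually at CLSI breakpoint, plus fixed class A/C β-lactamase inhibitor against AmpC. Inhibitor titrated; concentration restoring susceptibility recorded; MB9798/MB9799 fold difference indicates efflux.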

[8] = tested on: Pseudomonas aeruginosa efflux− (MB9799), IMP-1; type: cell-based; settings: efflux− MB9799; imipenem at 2 μg/mL; in the presence of a class A, C, D serine β-lactamase inhibitor closely related to relebactam
Outline: as §3

[9] = tested on: Pseudomonas aeruginosa MB9798 vs MB9799; settings: fold difference between efflux+ (MB9798) and efflux− (MB9799) strains; imipenem at 2 μg/mL
Outline: as §3

[10] = fluorescence assay, read-out: VIM-1 IC50

NDM-1, sequence (C7C422 whole entry, looked up, species assumed): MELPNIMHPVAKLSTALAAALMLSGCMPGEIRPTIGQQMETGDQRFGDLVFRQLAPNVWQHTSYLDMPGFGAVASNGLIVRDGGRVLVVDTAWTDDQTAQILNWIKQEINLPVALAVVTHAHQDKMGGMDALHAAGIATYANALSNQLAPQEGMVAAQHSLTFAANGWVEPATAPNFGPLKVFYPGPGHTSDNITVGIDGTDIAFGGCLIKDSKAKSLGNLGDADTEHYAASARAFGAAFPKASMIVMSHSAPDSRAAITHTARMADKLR
IMP-1, sequence (P52699 whole entry, looked up, species assumed): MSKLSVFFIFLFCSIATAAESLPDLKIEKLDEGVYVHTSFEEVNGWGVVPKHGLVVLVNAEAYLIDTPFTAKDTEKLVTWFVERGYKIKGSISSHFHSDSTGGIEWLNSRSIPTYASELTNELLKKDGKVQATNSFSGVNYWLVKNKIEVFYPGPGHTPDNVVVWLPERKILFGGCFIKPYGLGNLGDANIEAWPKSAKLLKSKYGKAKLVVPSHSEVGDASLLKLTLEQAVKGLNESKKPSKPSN

Row | SMILES | IC50 [1] [nM] | IC50 [2] [nM] | IC50 ([3]; VIM-1 IC50, fluorescence assay) [nM] | Escherichia coli MITC95 [4] [µM] | Klebsiella pneumoniae MITC95 [5] [µM] | Serratia marcescens MITC95 [6] [µM] | Concentration of metallo-β-lactamase inhibitor which restores susceptibility of efflux + (MB9798) strain to imipenem [7] | Concentration of metallo-β-lactamase inhibitor which restores susceptibility of efflux − (MB9799) strain to imipenem [8] | Efflux ratio [9] | IC50 [3, 10] [nM]
1 | Nc1nc(-c2cccc(-c3ccc(S(=O)(=O)N[C@@H]4CCNC4)c(S(N)(=O)=O)c3-c3nn[nH]n3)c2)c[nH]1 [Example 428] | 0.407 | 0.0473 | 0.133 | 0.3906 | 1.563 | 0.7813 | 0.7813 | 0.7813 | 1.00 | 
2 | NCC(CN)NS(=O)(=O)c1ccc(-c2cccc3[nH]c(N)nc23)c(-c2nn[nH]n2)c1S(N)(=O)=O [Example 429] | 0.489 | 0.0819 |  | 0.5208 | 1.563 | 1.563 | 0.7813 | 0.7813 | 1.00 | 0.228
3 | NCC(CN)NS(=O)(=O)c1ccc(-c2cccc3ccc(N)nc23)c(-c2nn[nH]n2)c1S(N)(=O)=O [Example 430] | 0.102 | 0.0325 |  | 1.172 | 1.563 | 1.563 | 1.563 | 1.563 | 1.00 | 0.103
4 | NCCNCc1sc(N)nc1-c1cccc(-c2ccc(S(=O)(=O)N[C@@H]3CCNC3)c(S(N)(=O)=O)c2-c2nnn[nH]2)c1 [Example 433] | 1.33 | 0.51 |  | 0.7813 | 1.563 | 1.563 | 1.563 | 0.7813 | 2.00 | 0.404
5 | NC[C@H](N)CNS(=O)(=O)c1ccc(-c2cccc(-c3c[nH]c(N)n3)c2)c(-c2nn[nH]n2)c1S(N)(=O)=O [Example 434] | 1.53 | 0.2 |  | 0.7813 | 1.563 | 1.563 | 1.563 | 0.7813 | 2.00 | 0.337
6 | NCC(CN)NS(=O)(=O)c1ccc(-c2cccc(-c3c[nH]c(N)n3)c2)c(-c2nn[nH]n2)c1S(N)(=O)=O [Example 435] | 1.78 | 0.46 |  | 1.563 | 3.125 | 3.125 | 3.125 | 1.563 | 2.00 | 1.21
7 | NCC(CN)NS(=O)(=O)c1ccc(-c2cccc3sc(N)nc23)c(-c2nn[nH]n2)c1S(N)(=O)=O [Example 436] | 0.103 | 0.0246 |  | 0.7813 | 1.563 | 1.563 | 0.7813 | 0.7813 | 1.00 | 0.116
8 | NCC(CN)NS(=O)(=O)c1ccc(-c2ccnc(-c3cnc(N)[nH]3)c2)c(-c2nnn[nH]2)c1S(N)(=O)=O [Example 437, 4-(2-(2-Amino-1H-imidazol-5-yl)pyridin-4-yl)-N^1-(1,3-diaminopropan-2-yl)-3-(1H-tetrazol-5-yl)benzene-1,2-disulfonamide] | 2.41 | 1.18 | 0.952 | 0.7813 | 3.125 | 3.125 | 1.563 | 0.7813 | 2.00 | 
9 | NCC(CN)NS(=O)(=O)c1ccc(-c2cccc(-c3cnc(N)[nH]3)n2)c(-c2nnn[nH]2)c1S(N)(=O)=O [Example 438, 4-(6-(2-Amino-1H-imidazol-5-yl)pyridin-2-yl)-N^1-(1,3-diaminopropan-2-yl)-3-(1H-tetrazol-5-yl)benzene-1,2-disulfonamide] | 17.9 | 2.04 | 3.91 | 3.125 | 3.125 | 3.125 | 6.25 | 3.125 | 2.00 | 
10 | Nc1ncc(-c2cccc(-c3ccc(S(=O)(=O)N[C@@H]4CCNC4)c(S(N)(=O)=O)c3-c3nnn[nH]3)n2)[nH]1 [Example 439, (R)-4-(6-(2-Amino-1H-imidazol-5-yl)pyridin-2-yl)-N^1-(pyrrolidin-3-yl)-3-(1H-tetrazol-5-yl)benzene-1,2-disulfonamide] | 6.72 | 0.254 |  | 3.125 | 1.563 | 1.563 | 6.25 | 1.563 | 4.00 | 0.629
11 | Nc1ncc(-c2cc(-c3ccc(S(=O)(=O)N[C@@H]4CCNC4)c(S(N)(=O)=O)c3-c3nnn[nH]3)ccn2)[nH]1 [Example 440, (R)-4-(2-(2-Amino-1H-imidazol-5-yl)pyridin-4-yl)-N^1-(pyrrolidin-3-yl)-3-(1H-tetrazol-5-yl)benzene-1,2-disulfonamide] | 3.96 | 0.333 | 0.571 | 0.7813 | 1.563 | 1.563 | 1.563 | 0.7813 | 2.00 | 
12 | C[C@H](N)Cc1nc2c(-c3ccc(S(N)(=O)=O)c(S(N)(=O)=O)c3-c3nn[nH]n3)cccc2[nH]1 [Example 442, (S)-4-(2-(2-aminopropyl)-1H-benzo[d]imidazol-4-yl)-3-(2H-tetrazol-5-yl)benzene-1,2-disulfonamide] | 1.33 | 0.431 | 0.249 | 1.563 | 3.125 | 1.563 | 0.7813 | 1.563 | 0.50 | 
13 | NCCNS(=O)(=O)c1ccc(-c2cccc3[nH]c([C@@H]4C[C@@H](O)CN4)nc23)c(-c2nn[nH]n2)c1S(N)(=O)=O [Example 444, N1-(2-aminoethyl)-4-(2-((2S,4R)-4-hydroxypyrrolidin-2-yl)-1H-benzo[d]imidazol-4-yl)-3-(2H-tetrazol-5-yl)benzene-1,2-disulfonamide] | 1.59 | 0.236 | 0.235 | 1.563 | 3.125 | 3.125 | 1.563 | 1.563 | 1.00 | 
